# Measured values as given in US20240156920A1, “COMPOSITIONS COMPRISING HYALURONIDASE AND/OR COLLAGENASE AND/OR 4-METHYLUMBELLIFERONE (4-MU) AND METHODS OF TREATMENT USING SAME” (STANDARD OF CARE CORPORATION, priority 2019, published 2024).
# Experiments:
# [1] = tested on: patient with peri-orbital puffiness due to edema; experiment: Treatment of peri-orbital puffiness due to peri-orbital edema using 4-MU (Example 5); type: in vivo, human
# Protocol: A patient with peri-orbital puffiness due to edema (edema not due to a hyaluronic acid filler) of the peri-orbital soft tissues or edema of the eyelid fat pads was treated with a composition comprising 25 mg/mL 4-methylumbelliferone (4-MU). Briefly, four injections were administered in the peri-orbital soft tissues and edematous orbital fat pads. The injections were performed using a 0.5 ml syringe having a 32-gauge needle inserted parallel to the globe, angling away from the globe, to avoid injury to the globe. An improvement in the extent of peri-orbital puffiness due to peri-orbital edema was observed within the first 15-60 minutes after the injections. […] Although there was recurrence of some of the edema, there was an improvement up to 3 months.
# [2] = tested on: patients with inflammation due to stasis dermatitis; experiment: Treatment of inflammation due to stasis dermatitis, severity grade (Example 6); type: in vivo, human; design: key: 4 (severe); 3 (moderate); 2 (mild); 1 (quiescent); 0 (normal); conditions: one week after treatment, 500 units at five points on the ankle
# Protocol: Patients with inflammation due to stasis dermatitis (Patient A, B, and C) on their lower legs were treated with Hylenex and the change in severity of their inflammation was measured after treatment.
# Briefly, the severity of inflammation on a target area of each patient's ankle was first graded on the following scale: 4 (severe), 3 (moderate), 2 (mild), 1 (quiescent), or 0 (normal). Patient A scored a 4 prior to treatment, Patient B scored a 3 prior to treatment, and Patient C scored a 3 prior to treatment.
# Next, 500 units of hylenex was injected at five different points into an area on each patient's ankle. The injections were performed using a 0.5 ml syringe having a 32-gauge needle. All patients were followed post injection, at one day and one week. Patient A's inflammation was classified as a 2 one week after treatment, Patient B's inflammation was classified as a 2 one week after treatment, and Patient C's inflammation was classified as a 2 one week after treatment.
# patients with jowls = experiment: Treatment of jowls, severity grade (Example 10); type: in vivo, human; conditions: Patients A, B and C, injected at seven points
# Protocol: Patients with jowls (Patient A, B, and C) were treated with Hylenex and the change in severity of their jowls was measured after treatment. Briefly, the severity of jowls in Patients A-C was assessed on a scale of severe, moderate or mild. Patient A and B presented with severe jowls while Patient C presented with mild jowls.
# Next, Hylenex was injected at seven different points into an area of skin on each patients with jowls. The injections were performed using a 0.5 ml syringe having a 32-gauge needle. All patients were followed post injection, at one day, one week, one, three, and six months.
# [3] = tested on: patients with peri-orbital puffiness due to edema of the eyelid fat pads; experiment: Treatment of peri-orbital puffiness due to peri-orbital edema using HYLENEX, PEFAS and Subjective Patient Score (Example 12); type: in vivo, human
# Text: The Peri-orbital and Eyelid Fullness Assessment Scale (PEFAS or Sweis-Scale) defines the etiology of the upper and/or lower eyelid fullness to determine the best and safest course of treatment. It determines whether the fullness is secondary to pseudoherniation of the upper and/or lower eyelid fat pads, secondary to edema of the eyelid soft tissues, secondary to edema of the fat pads, or secondary to a combination of pseudoherniation of the fat pads with edema of the fat pads, and/or edema of the peri-orbital soft tissues. The PEFAS score is represented as the findings in the right upper eyelid/the findings in the lower eyelid and the findings in the left upper eyelid/the findings in the lower eyelid.
# Four patients (Patients A-D) with peri-orbital puffiness due to edema (as identified in Example 1) of the eyelid fat pads were scored as a Grade 1E, 2E, 3E, or 3+E on the Peri-orbital Fullness Assessment Scale. A score was given to the upper and lower eyelids in the patient's left and right eye. Patient A's eyes were scored on the PEFAS scale as a L 0/3E (left eye; upper eyelid over lower eyelid) and a R 0/3E (right eye; upper eyelid over lower eyelid). Patient B was scored as a L 2E/2E and a R 2E/2E. Patient C was scored as a L 1/3E and a R 0/3E and Patient D was scored as a L 2E/3+E and a R 2E/3+E.
# The patients were subsequently treated with HYLENEX. […] The injections were performed using a 0.5 ml syringe having a 31-gauge needle inserted parallel to the globe, angling away from the globe, to avoid injury to the globe. Specifically, three injections were made into the medial eyelid fat pad, two into the central eyelid fat pad, and three into the lateral eyelid fat pad at a depth of about 6 mm, 8 mm, and 6 mm, respectively. Additionally Patients B and C received 3 to 5 injections in the peri-orbital soft tissues (e.g., the malar region) at a depth of between about 5 to about 10 mm.
# After treatment, Patient C was followed for 1 month, Patient D was followed for 2 months, and Patients A and B were followed for 3 months.
# After treatment, the patient's eyes were scored on the PEFAS scale. Patient A's eyes were scored on the PEFAS scale as a L 0/0 (left eye; upper eyelid over lower eyelid) and a R 0/0E (right eye; upper eyelid over lower eyelid). Patient B was scored as a L 2E/1E and a R 2E/1. Patient C was scored as a L 1E/1E and a R 0/1 and Patient D was scored as a L 2E/0E and a R 2E/0.
# Each patient was given an initial Subjective Patient Score of 10. The Subjective Patient Score is based on a scale of 1 to 10 with 10 being the subject's observed starting amount of peri-orbital puffiness and 0 being no puffiness. Each of the patients scored their puffiness between as a 3 or 4 at 2 weeks, 3 months, and 6 months after their initial treatment.
# [4] = tested on: patients with scleroderma on their arms; experiment: Treatment of fibrosis (scleroderma on arms), severity grade (Example 8); type: in vivo, human; conditions: five patients; average prior to treatment moderate; five injection points in a 10×10 cm area; followed one day to six months
# Protocol: Five patients with scleroderma on their arms were treated with Hylenex and the change in severity of their fibrosis was measured after treatment. Briefly, the severity of scleroderma on a target area of on each patient was first graded using as either severe, moderate, mild, or none. Overall scores for patients' arms prior to treatment averaged as moderate.
# Next, Hylenex was injected at five different points into a 10×10 cm area of scleroderma on the patient's arm. The injections were performed using a 0.5 ml syringe having a 32-gauge needle. All patients were followed post injection, at one day, one week, one, three, and six months.
# Demyelinated neurons = experiment: Treatment of demyelinated neurons in culture, microscopy (Example 9); type: cell-based; conditions: 10 U/mL; after 14 days; 24-well plate
# Protocol: Demyelinated neurons were grown to confluence in culture and then transferred to a 24-well cell culture plate (Sigma) in a volume of 2 mL. 10 U/mL of Hylenex was added to each well.
# [5] = tested on: patients with lower eyelid puffiness; experiment: Treatment of lower eyelid puffiness with hyaluronidase and collagenase, visual assessment (Example 7); type: in vivo, human; conditions: one patient per composition; 100 U to each of five sites in the lower eyelid fat pads; assessed 2 weeks to 1 year after administration
# Protocol: Patient A (a person), Patent B (a person), and Patent C (a person) presented with lower eyelid puffiness.
# Briefly, Patient A was administered a composition comprising Hylenex by injections of 100 U to each of five sites in the lower eyelid fat pads, Patient B was administered a composition comprising a collagenase by injections of 100 U to each of five sites in the lower eyelid fat pads, and Patient C was administered a composition comprising Hylenex and a collagenase by injections of 100 U to each of five sites in the lower eyelid fat pads. The injections were performed using a 0.5 ml syringe having a 32-gauge needle.
# Each patient's lower eyelid puffiness was visually assessed 2 weeks, 1 month, 2 months, 4 months, 6 months, and 1 year after administration of the compositions.
# [6] = tested on: patient with peri-orbital puffiness due to edema; experiment: Treatment of peri-orbital puffiness due to peri-orbital edema using a hyaluronidase (Example 2); type: in vivo, human; conditions: four injections, 10 units in each fat pad
# Protocol: A patient with peri-orbital puffiness due to edema (edema not due to a hyaluronic acid filler) of the peri-orbital soft tissues or edema of the eyelid fat pads was treated with a composition comprising a hyaluronidase (e.g., Hylenex). Briefly, four injections were administered in the peri-orbital soft tissues and edematous orbital fat pads using a dosage of 10 units injected in each fat pad (in the case of edema of the fat pads). The injections were performed using a 0.5 ml syringe having a 32-gauge needle inserted parallel to the globe, angling away from the globe, to avoid injury to the globe.
# An improvement in the extent of peri-orbital puffiness due to peri-orbital edema was observed within the first 15-60 minutes after the injections. […] Although there was recurrence of some of the edema, there was an improvement up to 3 months.
Compound,"adverse effects ([1]; one patient followed for 6 months, 25 mg/mL, four injections)","duration of overall reduction in peri-orbital puffiness due to peri-orbital edema compared to pre-treatment ([1]; one patient followed for 6 months, 25 mg/mL, four injections, recurrence of some of the edema)","time after the injections within which an improvement in the extent of peri-orbital puffiness due to peri-orbital edema was observed ([1]; one patient, four injections of a composition comprising 25 mg/mL) [min]","severity of inflammation (scale 0-4) after treatment ([2]; Patient A, 4 prior to treatment)","severity of inflammation (scale 0-4) after treatment ([2]; Patient B, 3 prior to treatment)","severity of inflammation (scale 0-4) after treatment ([2]; Patient C, 3 prior to treatment)",duration of effect on jowls (patients with jowls),"severity of jowls (severe, moderate or mild) after treatment (patients with jowls; one day after treatment, A and B severe, C mild before)","PEFAS score after treatment (upper eyelid over lower eyelid) ([3]; Patient A, left eye, L 0/3E before treatment)","PEFAS score after treatment (upper eyelid over lower eyelid) ([3]; Patient C, right eye, R 0/3E before treatment)","adverse effects ([3]; Patients A-D followed for up to 6 months, 30U per fat pad)","time over which a reduction in peri-orbital puffiness is still exhibited ([3]; Patients A-D, 30U per fat pad)","time after the injections within which an improvement in the extent of peri-orbital puffiness was exhibited ([3]; each of Patients A-D, 30U per peri-orbital fat pad exhibiting edema) [min]","peri-orbital (eye) puffiness compared to pre-treatment ([3]; each of Patients A-D, followed 1 month (C), 2 months (D), 3 months (A and B), 30U per fat pad)","overall severity score of scleroderma post-treatment (severe, moderate, mild, none) [4]",myelination of neurons by microscopy (Demyelinated neurons),"lower eyelid puffiness, visual assessment [5]",adverse effects ([6]; one patient followed for 6 months),"duration of overall reduction in peri-orbital puffiness due to peri-orbital edema compared to pre-treatment ([6]; one patient followed for 6 months, recurrence of some of the edema)",time after the injections within which an improvement in the extent of peri-orbital puffiness due to peri-orbital edema was observed ([6]; one patient) [min]
Cc1cc(=O)oc2cc(O)ccc12 [4-methylumbelliferone],without any adverse effects,up to 3 months,15 to 60,,,,,,,,,,,,,,,,,
"Hylenex: recombinant preparation of human hyaluronidase; soluble fragment of human hyaluronidase (PH20), 447 amino acids, SEQ ID NO: 1",,,,2,2,2,more than six months,mild jowls,0/0,0/1,without any adverse effects,up to 6 months,15 to 60,marked reduction,mild,remyelinated neurons,reduction in lower eyelid puffiness,without any adverse effects,up to 3 months,15 to 60
collagenase,,,,,,,,,,,,,,,,,did not exhibit any reduction in lower eyelid puffiness,,,
